This is an account of results in patent publication US8466185B2, “Methods and assays for detecting and treating hypoglycemia” (priority 2008, dated 2013).

The test system of data set [1] is human islets. Put plainly: in vitro perifusion, glucagon secretion from human islets. It counts as cell-based. The conditions noted are these: for effect on basal glucagon secretion or glucagon responses to glutamate: 100 μM.
Method: (§3) A high-capacity, automated perifusion system was developed to dynamically measure hormone secretion from pancreatic islets. A low pulsatility peristaltic pump pushed HEPES-buffered solution (mM: 125 NaCl, 5.9 KCl, 2.56 CaCl2, 1 MgCl2, 25 HEPES, and 0.1% BSA; pH 7.4; and a perifusion rate of 100 μL/min) through a column containing 100 pancreatic islets immobilized in Bio-Gel P-4 Gel (BioRad, Hercules, Calif.). Except otherwise stated, glucose concentration was adjusted to 3 mM for all experiments. Stimuli were applied with the perifusion buffer. The perifusate was collected in an automatic fraction collector designed for a 96 well plate format. The columns containing the islets and the perifusion solutions were kept at 37° C., and the perifusate in the collecting plate was kept at <4° C. Perifusates were collected every minute. Hormone release in the perifusate was determined with the human or mouse Endocrine LINCOplex Kit following manufacturer's instructions (Linco research, St. Charles, Mo.).
The test system of data set [2] is mouse islets. Put plainly: perifusion, glucagon secretion from mouse islets. In kind it is cell-based, mouse (C57Bl/6).
Method: as §3
The next data set has as its system C57BL/6 mice. Put plainly: in vivo responses to iGluR agonists injected i.p. Set-up: species or system mouse. The procedure:
(§1) We examined in vivo responses to iGluR agonists by injecting C57BL/6 mice i.p. with either PBS (n=4), monosodium glutamate (30 mg/kg; n=7), or AMPA (15 mg/kg; n=8). To determine whether blocking iGluRs exacerbates insulin-induced hypoglycemia, we injected the AMPA/kainate iGluR antagonist NBQX (Tocris, Ellisville, Mo.) i.p. at 20 mg/kg 30 minutes before mice were treated with insulin to induce hypoglycemia.

Data set [3] has as its system human islets. Put plainly: in vitro perifusion, insulin release from human islets. The conditions noted are these: 100 μM.
Method: as §3
Data set [4] relates to monkey islets. Put plainly: in vitro perifusion, insulin release from monkey islets. The conditions noted are these: 100 μM; not shown.
In data set [5] the test system is human islets and dispersed single islet cells. Put plainly: [Ca^2+]i imaging (Fura-2) of human islets and dispersed islet cells. In kind it is cell-based. The conditions noted are these: CNQX 10 μM. The procedure: (§2) Glucose was added to give a final concentration of 3 mM. Islets or dispersed islet cells were incubated in Fura-2 AM (2 μM; 1 hour) and placed in a closed small-volume imaging chamber (Warner Instruments, Hamden, Conn.). Stimuli were applied with the bathing solution. Islets loaded with Fura-2 were excited alternatively at 340 and 380 nm with a monochromator light source (Cairn. Research Optoscan Monochromator, Cairn Research Ltd, Faversham, UK). Images were acquired with a Hamamatsu camera (Hamamatsu Corp, Japan) attached to a Zeiss Axiovert 200 microscope (Carl Zeiss, Jena, Germany). Changes in the 340/380 fluorescence emission ratio over time were analyzed in individual islets and dispersed cells using Kinetic Imaging AQM Advance software (Kinetic Imaging, N.C.). Peak changes in the fluorescence ratio constituted the response amplitude.

For data set [6], the system named is monkey islets and dispersed single islet cells. Put plainly: [Ca^2+]i imaging (Fura-2) of monkey islets and islet cells. In kind it is cell-based, monkey (Macacca fascicularis). The conditions noted are these: nifedipine 10 μM; for inhibition of [Ca^2+]i responses to kainate: CNQX 10 μM, La^3+ 30 μM. Here is the method:
as §2, with “Imaging of [Ca^2+]i was performed as described elsewhere (Cabrera et al., 2006). […] Glucose” for “Glucose”

The subject of data set [7] is human islets. In kind it is cell-based. The conditions noted are these: CNQX 10 μM; measured at 8 minutes after reducing glucose. The procedure: Perifusion of the islets was stopped after addition of the stimulus to allow the islet secretory products to accumulate and then resumed after 10 minutes.
For data set [8], the system named is monkey islets. Put plainly: microfluorometric determination of endogenous glutamate release from islets. In kind it is cell-based. The conditions noted are these: kainate 100 μM; KCl 30 mM. The procedure:
Endogenous glutamate release from pancreatic islets was measured with the Amplex Red Glutamic Acid Assay Kit (Molecular Probes) adapted for microscopic microfluorometric detection (Akagi et al., 2003). In this assay, released glutamate is a substrate in an enzymatic chain reaction that generates the highly fluorescent product resorufin (Molecular Probes, Eugene, Oreg.). L-glutamate is oxidized by glutamate oxidase to produce α-ketoglutarate, NH4, and H2O2. Hydrogen peroxide reacts with the Amplex Red reagent in a reaction catalyzed by horseradish peroxidase to generate resorufin. Pancreatic islets were allowed to attach to a glass coverslip previously coated with poly-D-lysine. The coverslip was mounted in a closed small-volume imaging chamber (Warner Instruments) and perifused with the HEPES-buffered solution containing the stimuli. Resorufin fluorescence was excited at 510 nm, and the emission recorded at 590 nm using the same imaging system used to measure [Ca^2+]i (see above).

Data set [9] has as its system isolated human islet cells. Put plainly: whole-cell patch clamp recordings of dispersed human islet cells. It counts as cell-based. The conditions noted are these: NBQX 10 μM; kainate 100 μM. Here is the method:
Membrane currents were measured using whole-cell patch clamp recordings of dispersed human islet cells. All recordings were amplified using an EPC10 patch-clamp amplifier and digitized and analyzed using Patchmaster software (Heka Elektronik, Lambrecht, Germany). Pipettes were pulled from borosilicate glass capillaries on a horizontal programmable puller (DMZ Universal Puller, Zeitz-Instrumente, Augsburg, Germany). Pipettes with a resistance of 5-7 MΩ were filled with a pipette solution containing (in mM): 150 NMG (N-methyl-D-Glucamine), 10 EGTA, 1 MgCl2, 2 CaCl2, 5 HEPES and 3 Mg-ATP (pH 7.15). The bath solution contained (in mM): 138 NaCl, 5.6 KCl, 1.2 MgCl2, 2.6 CaCl2, 5 HEPES and 10 TEA (pH7.4). Cells were voltage-clamped at −70 mV. Ligands (e.g. kainate) were applied using the SF-77B Perfusion Fast-Step system (Warner Instruments, Hamden, Conn.), which allows rapid change of solutions bathing a single cell or membrane patch attached to a patch electrode. […] Thus, it is most likely that cells responding to kainate in our electrophysiological experiments were α-cells.

Data set [10] deals with mice. In kind it is in vivo, mouse. The conditions noted are these: NBQX 20 mg/kg i.p. The procedure: as §1
In initial experiments, mice were injected with insulin (1.5 U/kg; i.p.) to induce hypoglycemia.

Data set [11] deals with mice. Put plainly: hyperinsulinemic-hypoglycemic clamp in conscious mice. The conditions noted are these: NBQX 10 mg/kg iv versus saline. In kind it is in vivo, mouse. The procedure: To provide a standardized hypoglycemic stimulus we further conducted studies using the hyperinsulinemic-hypoglycemic clamp. At least 4 days before the experiments, mice were anesthetized with isoflurane, and an indwelling catheter was inserted in the left jugular vein and externalized through an incision in a skin flap behind the head. Mice were fasted for 4 hours and placed in individual plastic containers for tail cut sampling. […] A priming dose of insulin (100 mU/kg) was administered, followed by a constant infusion rate of 20 mU/kg/min (Actrapid, Novo Nordisk). The plasma glucose concentration was determined at 10 min intervals using a One Touch Ultra glucose meter. Glucose (30%) was infused at a variable rate to maintain the plasma glucose concentration at the hypoglycemic levels (˜3 mM). At time 50 min, a hyperinsulinemic-hypoglycemic clamp was achieved. Blood glucose levels were kept at the steady state (3 mM) and NBQX was administered as a bolus (10 mg/kg) at time 60 min, followed by infusion (10 mg/kg) until the end of the experiment. A control experiment was performed using saline (0.9% NaCl) following the same protocol used for NBQX. […] Animals were euthanized by an over-dose of pentobarbital.

The subject of data set [12] is mouse islets. Put plainly: perifusion of mouse islets with β cells destroyed by streptozotocin versus intact islets. It counts as cell-based. The conditions noted are these: arginine 5 mM; streptozotocin-treated versus intact islets. The procedure:
This experiment was performed with mouse islets. Two samples were perifused in parallel (“a” and “b”). In “a” (blue curve and blue bar), but not in “b” (red curve and red bar) the β cells were selectively destroyed with streptozotocin. This absence of β cells generates type 1 diabetes-like condition in vitro. The glucagon release profile in panel “A” was obtained by using this model. […] Note that the non specific stimulus arginine is not able to differentiate a functionally impaired α cell in the absence of β cells.
At t=5 min, both samples were stimulated with 100 μM kainate for 5 min. The glucose was increased to 11 mM for 10 minutes and decreased again to 3 mM for the duration of the perifusion. At t=45 min, both samples (v) were stimulated with 5 mM Arginine. […] Kainate is a glutamate analog that is not metabolizable, and therefore a preferred agonist of the AMPA/Kainate receptors. Error bars represent the standards deviations for n=3 perifusions. Comparison were performed by an independent t-test.
For example, in some embodiments the present invention are directed to an in vitro model in which we destroy selectively the beta cells with, for example, streptozotocin, thus creating a situation that mimics type 1 diabetes. The treated islets are composed mainly of alpha cells. […] To examine if alpha cells in islets depleted of beta cells had impaired glutamate signaling, we stimulated them with kainate, an agonist for ionotropic glutamate receptors.

“Also recorded” adds a separate entry of the source.

As to `NC1(C(=O)O)C[C@H](C(=O)O)[C@H](C(=O)O)C1` (stereo partly shown) [ACPT-1], in the data set with human islets [1], the “effect on basal glucagon secretion or glucagon responses to glutamate” value (from here on “effect … to glutamate”) is given as “did not elicit changes in glucagon secretion; also recorded: did not affect basal glucagon secretion or glucagon responses to glutamate”. In the data set on mouse islets [2] (100 μM), the “effect on basal or glutamate-induced glucagon secretion” value was “did not affect basal or glutamate-induced glucagon secretion; also recorded: did not elicit changes in glucagon secretion”.

On to `Cc1o[nH]c(=O)c1CC(N)C(=O)O` (stereo not shown) [AMPA], for which, in the data set with human islets [1] (agonist 100 μM, 3 mM glucose), the “glucagon release / glucagon secretion” value is recorded as “elicited strong glucagon secretion; also recorded: Increases in glucagon release could also be elicited”. Moreover, in the data set with mouse islets [2] (100 μM), the “glucagon release / secretion” value is listed as “stimulated glucagon secretion”. Further, in the data set on C57BL/6 mice (AMPA 15 mg/kg i.p.), the “convulsions indicative of central nervous penetration” value is recorded as “did not induce convulsions”. The plasma insulin concentrations entry in the data set with C57BL/6 mice (glutamate 30 mg/kg, AMPA 15 mg/kg, i.p.) is “not affected; also recorded: did not change”. The plasma glucagon concentrations result in the data set with C57BL/6 mice (glutamate 30 mg/kg, AMPA 15 mg/kg, i.p., 30 minutes after treatment) is recorded as “increased plasma glucagon concentrations”. Moreover, the plasma glucose concentrations result with C57BL/6 mice (glutamate 30 mg/kg, AMPA 15 mg/kg, i.p., thirty minutes after injection) is “increased glucose levels; also recorded: increased plasma glucose concentrations”. Moreover, the insulin release result is recorded as “Neither kainate (100 μM), glutamate (100 μM), nor AMPA (100 μM) stimulated increases in insulin release” in the data set on human islets [3] and “Neither kainate (100 μM), glutamate (100 μM), nor AMPA (100 μM) stimulated increases in insulin release” with monkey islets [4].

For the compound `N#Cc1cc2[nH]c(=O)c(=O)[nH]c2cc1[N+](=O)[O-]` [CNQX], in the data set with human islets [1] (CNQX 10 μM), the “block of glutamate-induced glucagon responses” value was “could be blocked”. In addition, in [5], the “block of [Ca^2+]i responses to glutamate” value was “could be blocked”. In [6], the “inhibition of [Ca^2+]i responses to kainate” value is listed as “inhibited; also recorded: blocked”. For the same compound, the “inhibition of glucagon response to lowering glucose from 6 mM to 1 mM” value in the data set with human islets [7] worked out at 54%.

Regarding `NC(C(=O)O)(c1ccc(P(=O)(O)O)cc1)C1CC1` (stereo not shown) [CPPG], the “effect … to glutamate” value with human islets [1] was “did not affect the glutamate-induced glucagon response; also recorded: did not affect basal glucagon secretion or glucagon responses to glutamate”. In addition, in the data set with mouse islets [2] (100 μM), the “effect on basal or glutamate-induced glucagon secretion” value is on record as “did not affect basal or glutamate-induced glucagon secretion; also recorded: did not affect the glutamate-induced glucagon response”.

Regarding `O=[N+]([O-])c1cc2nc(O)c(O)nc2cc1[N+](=O)[O-]` [DNQX], in the data set with mouse islets [2] (DNQX 10 μM, glutamate 100 μM), the “block of glutamate-stimulated glucagon release” value is reported as “blocked”.

For `[Cl-].[K+]` [KCl], the “glutamate release (resorufin fluorescence)” value in the data set with monkey islets [8] was “induced significant glutamate release; also recorded: elicited large increases in glutamate release”.

As for `[La+3]` [La^3+], the “kainate-stimulated glucagon secretion in presence of Ca^2+ channel blockers” value with human islets [1] is reported as “strongly diminished”. Besides, the “inhibition of [Ca^2+]i responses to kainate” value in [6] was “inhibited; also recorded: abolished”.

For `NS(=O)(=O)c1cccc2c1c([N+](=O)[O-])cc1nc(O)c(O)nc12` [NBQX], in data set [9], the “block of kainate-evoked inward currents” value is reported as “could be blocked”. Further, the sedation result in the data set with mice [10] is reported as “did not cause sedation”. In the data set on mice [10] (insulin 1.5 U/kg i.p., not shown), the “insulin-induced drop in glucose plasma levels” value was “increased the insulin-induced drop in glucose plasma levels”. For the same compound, in the data set with mice [11], the “glucose infusion rate needed to maintain glycemia (~3 mM)” value was “needed larger infusion rates of glucose; also recorded: significantly larger” and the “plasma glucagon / glucagon secretion in response to hypoglycemia” value is on record as “lower; also recorded: significantly diminished”.

Consider `N=C(N)NCCC[C@H](N)C(=O)O` [arginine], for which the “arginine-induced glucagon release in absence versus presence of β cells” value in the data set on mouse islets [12] is “not statistically different”.

Take `COC(=O)C1=C(C)NC(C)=C(C(=O)OC)C1c1ccccc1[N+](=O)[O-]` [nifedipine]: in [6], the “reduction of kainate-induced [Ca^2+]i responses” value is reported as around 60%.

Turning to `N[C@@]1(C(=O)O)CC[C@@H](C(=O)O)C1` [trans-ACPD], the entries for the “effect … to glutamate” value with human islets [1] and in the data set on human islets [1] (listed as tACPD) were “did not affect basal glucagon secretion or glucagon responses to glutamate” and “did not elicit changes in glucagon secretion”, respectively. In addition, the “effect on basal or glutamate-induced glucagon secretion” value in the data set with mouse islets [2] (100 μM) is “did not affect basal or glutamate-induced glucagon secretion”; in the data set with mouse islets [2] (100 μM, listed as tACPD), “did not elicit changes in glucagon secretion”.
